From ChEMBL document CHEMBL1144797, “Synthesis and antimicrobial activity of 7 alpha-amino-23,24-bisnor-5 alpha-cholan-22-ol derivatives” (Bioorg Med Chem Lett, 2008)
In brackets after ≈: the same amount, converted by molar mass.

Columns and labels:
Pseudomonas aeruginosa [1] = assay: Antimicrobial activity against Pseudomonas aeruginosa 1771M; type: functional
Salmonella typhimurium = assay: Antimicrobial activity against Salmonella Typhimurium; type: functional, Salmonella enterica subsp. enterica serovar Typhimurium; details: Salmonella enterica
Streptococcus pyogenes [2] = assay: Antimicrobial activity against Streptococcus pyogenes 308A; type: functional
Staphylococcus aureus = assay: Antimicrobial activity against Staphylococcus aureus 503; type: functional
Streptococcus pyogenes [3] = assay: Antimicrobial activity against Streptococcus pyogenes 77A; type: functional
Enterobacter cloacae = assay: Antimicrobial activity against Enterobacter cloacae 1321E; type: functional
Pseudomonas aeruginosa [4] = assay: Antimicrobial activity against Pseudomonas aeruginosa 9027; type: functional
Escherichia coli = assay: Antimicrobial activity against Escherichia coli DC2; type: functional
[5] = Hemolytic activity against RBC at 100 ug/ml; type: ADME, cell-based; details: erythrocyte

Row | Structure (SMILES) | MIC (Pseudomonas aeruginosa [1]) [µg/mL] | MIC (Salmonella typhimurium) [µg/mL] | MIC (Streptococcus pyogenes [2]) [µg/mL] | MIC (Staphylococcus aureus) [µg/mL] | MIC (Streptococcus pyogenes [3]) [µg/mL] | MIC (Enterobacter cloacae) [µg/mL] | MIC (Pseudomonas aeruginosa [4]) [µg/mL] | MIC (Escherichia coli) [µg/mL] | Activity [5]
1 | C[C@H](CO)[C@H]1CC[C@H]2[C@@H]3[C@H](N)C[C@H]4C[C@@H](NCCCNCCCCN)CC[C@]4(C)[C@H]3CC[C@]12C.Cl.Cl.Cl.Cl | > 100 | > 100 | 12.5 | 12.5 | 25 | > 100 | 25 | 50 | 
2 | CC(C)[C@H]1CC[C@H]2[C@@H]3[C@H](O)C[C@H]4CC(N)CC[C@]4(C)[C@H]3CC[C@]12C (stereo not given in full) | 100 (≈ 300 µM) | 100 (≈ 300 µM) | 100 (≈ 300 µM) | 100 (≈ 300 µM) | 100 (≈ 300 µM) | 100 (≈ 300 µM) | 100 (≈ 300 µM) | 100 (≈ 300 µM) | 
3 | C[C@H](CO)[C@H]1CC[C@H]2[C@@H]3[C@H](N)C[C@H]4C[C@@H](NCCCNCCCCNCCCN)CC[C@]4(C)[C@H]3CC[C@]12C.Cl.Cl.Cl.Cl.Cl | 50 | > 100 | 3.1 | 6.3 | 25 | > 100 | 6.3 | 50 | 
4 | C[C@H](CO)[C@H]1CC[C@H]2[C@@H]3[C@H](N)C[C@H]4C[C@H](O)CC[C@]4(C)[C@H]3CC[C@]12C.Cl | > 100 | > 100 | 3.1 | 3.1 | 6.3 | > 100 | > 100 | 12.5 | Active
5 | C[C@H](CO)[C@H]1CC[C@H]2[C@@H]3[C@H](N)C[C@H]4C[C@H](NCCCNCCCCN)CC[C@]4(C)[C@H]3CC[C@]12C.Cl.Cl.Cl.Cl | > 100 | > 100 | 12.5 | 12.5 | 25 | > 100 | 25 | > 100 | 
6 | C[C@H](CO)[C@H]1CC[C@H]2[C@@H]3[C@H](N)C[C@H]4C[C@@H](O)CC[C@]4(C)[C@H]3CC[C@]12C.Cl | > 100 | > 100 | 6.3 | 12.5 | 12.5 | > 100 | > 100 | 25 | 
7 | C[C@H](CO)[C@H]1CC[C@H]2[C@@H]3[C@H](N)C[C@H]4C[C@H](NCCCNCCCCNCCCN)CC[C@]4(C)[C@H]3CC[C@]12C.Cl.Cl.Cl.Cl.Cl | 25 | > 100 | 6.3 | 12.5 | 25 | > 100 | 12.5 | 50 | 
8 | C[C@H](CO)[C@H]1CC[C@H]2[C@@H]3[C@H](N)C[C@H]4C[C@H](N)CC[C@]4(C)[C@H]3CC[C@]12C.Cl.Cl | 25 | 25 | 1.6 | 3.1 | 3.1 | 50 | 50 | 12.5 | 
9 | C[C@H](CO)[C@H]1CC[C@H]2[C@@H]3[C@H](N)C[C@H]4C[C@@H](N)CC[C@]4(C)[C@H]3CC[C@]12C.Cl.Cl | 50 | 50 | 6.3 | 6.3 | 6.3 | 50 | > 100 | 25 | 
10 | C[C@H](CO)[C@H]1CC[C@H]2[C@@H]3[C@H](F)C[C@H]4C[C@@H](NCCCNCCCCN)CC[C@]4(C)[C@H]3CC[C@]12C.Cl.Cl.Cl | 3.1 | > 100 | 6.3 | 6.3 | 6.3 | > 100 | 6.3 | 6.3 | 
11 | C[C@H](CO)[C@H]1CC[C@H]2[C@@H]3[C@H](O)C[C@H]4C[C@@H](NCCCNCCCCN)CC[C@]4(C)[C@H]3CC[C@]12C.Cl.Cl.Cl | 25 | 50 | 25 | 12.5 | 25 | 50 | 12.5 | 25 | 
12 | C[C@H](COS(=O)(=O)O)[C@H]1CC[C@H]2[C@@H]3[C@H](N)C[C@H]4C[C@H](NCCCNCCCCN)CC[C@]4(C)[C@H]3CC[C@]12C.Cl.Cl.Cl.Cl | 50 | > 100 | 6.3 | 6.3 | 12.5 | > 100 | 12.5 | 25 | 
13 | C[C@H](COS(=O)(=O)O)[C@H]1CC[C@H]2[C@@H]3[C@H](N)C[C@H]4C[C@@H](NCCCNCCCCN)CC[C@]4(C)[C@H]3CC[C@]12C.Cl.Cl.Cl.Cl | > 100 | > 100 | 25 | 25 | 50 | > 100 | > 100 | > 100 | 
